Laboratory results taken from patent US8143243B2, “Compounds for the treatment of hepatitis C” (Bristol-Myers Squibb Company, priority 2007, dated 2012).
Read-outs that look alike come from different tables or passages of the source.

Target: T1, HCV NS5B (Hepatitis C virus genotype 1b, UniProt Q9WMX2)
T1 construct: The protein was expressed with an 18 amino acid C-terminal truncation to enhance the solubility; made in house; host or cells: E. coli BL21 (DE3)
Experiment: HCV NS5B RdRp enzyme assay (standard / modified)
Assay type: biochemical
Procedure: HCV NS5B RdRp cloning, expression, and purification. The cDNA encoding the NS5B protein of HCV, genotype 1b, was cloned into the pET21a expression vector. The protein was expressed with an 18 amino acid C-terminal truncation to enhance the solubility. The E. coli competent cell line BL21 (DE3) was used for expression of the protein. Cultures were grown at 37° C. for ˜4 hours until the cultures reached an optical density of 2.0 at 600 nm. The cultures were cooled to 20° C. and induced with 1 mM IPTG. Fresh ampicillin was added to a final concentration of 50 μg/ml and the cells were grown overnight at 20° C.
Cell pellets (3 L) were lysed for purification to yield 15-24 mgs of purified NS5B. The lysis buffer consisted of 20 mM Tris-HCl, pH 7.4, 500 mM NaCl, 0.5% triton X-100, 1 mM DTT, 1 mM EDTA, 20% glycerol, 0.5 mg/ml lysozyme, 10 mM MgCl2, 15 ug/ml deoxyribonuclease I, and Complete TM protease inhibitor tablets (Roche). After addition of the lysis buffer, frozen cell pellets were resuspended using a tissue homogenizer. To reduce the viscosity of the sample, aliquots of the lysate were sonicated on ice using a microtip attached to a Branson sonicator. The sonicated lysate was centrifuged at 100,000×g for 1 hr at 4° C. and filtered through a 0.2 μm filter unit (Corning).
The protein was purified using three sequential chromatography steps: Heparin sepharose CL-6B, polyU sepharose 4B, and Hitrap SP sepharose (Pharmacia). The chromatography buffers were identical to the lysis buffer but contained no lysozyme, deoxyribonuclease I, MgCl2 or protease inhibitor and the NaCl concentration of the buffer was adjusted according to the requirements for charging the protein onto the column. Each column was eluted with a NaCl gradient which varied in length from 5-50 column volumes depending on the column type. After the final chromatography step, the resulting purity of the enzyme is >90% based on SDS-PAGE analysis. The enzyme was aliquoted and stored at −80° C.
Standard HCV NS5B RdRp enzyme assay. HCV RdRp genotype 1b assays were run in a final volume of 60 μl in 96 well plates (Costar 3912). The assay buffer is composed of 20 mM Hepes, pH 7.5, 2.5 mM KCl, 2.5 mM MgCl2, 1 mM DTT, 1.6 U RNAse inhibitor (Promega N2515), 0.1 mg/ml BSA (Promega R3961), and 2% glycerol. All compounds were serially diluted (3-fold) in DMSO and diluted further in water such that the final concentration of DMSO in the assay was 2%. HCV RdRp genotype 1b enzyme was used at a final concentration of 28 nM. A polyA template was used at 6 nM, and a biotinylated oligo-dT12 primer was used at 180 nM final concentration. Template was obtained commercially (Amersham 27-4110). Biotinylated primer was prepared by Sigma Genosys. 3H-UTP was used at 0.6 μCi (0.29 μM total UTP). Reactions were initiated by the addition of enzyme, incubated at 30° C. for 60 min, and stopped by adding 25 μl of 50 mM EDTA containing SPA beads (4 μg/μl, Amersham RPNQ 0007). Plates were read on a Packard Top Count NXT after >1 hr incubation at room temperature.
Modified HCV NS5B RdRp enzyme assay. A modified enzyme assay was performed essentially as described for the standard enzyme assay except for the following: The biotinylated oligo dT12 primer was precaptured on streptavidin-coated SPA beads by mixing primer and beads in assay buffer and incubating at room temperature for one hour. Unbound primer was removed after centrifugation. The primer-bound beads were resuspended in 20 mM Hepes buffer, pH 7.5 and used in the assay at final concentrations of 20 nM primer and 0.67 μg/μl beads. Order of addition in the assay: enzyme (14 nM) was added to diluted compound followed by the addition of a mixture of template (0.2 nM), 3H-UTP (0.6 μCi, 0.29 μM), and primer-bound beads, to initiate the reaction; concentrations given are final. Reactions were allowed to proceed for 4 hours at 30° C.
IC50 values for compounds were determined using seven different [I]. […]

[1] = HCV RdRp genotype 1b enzyme, read-out: IC50

T1 sequence (Q9WMX2 2420-2992): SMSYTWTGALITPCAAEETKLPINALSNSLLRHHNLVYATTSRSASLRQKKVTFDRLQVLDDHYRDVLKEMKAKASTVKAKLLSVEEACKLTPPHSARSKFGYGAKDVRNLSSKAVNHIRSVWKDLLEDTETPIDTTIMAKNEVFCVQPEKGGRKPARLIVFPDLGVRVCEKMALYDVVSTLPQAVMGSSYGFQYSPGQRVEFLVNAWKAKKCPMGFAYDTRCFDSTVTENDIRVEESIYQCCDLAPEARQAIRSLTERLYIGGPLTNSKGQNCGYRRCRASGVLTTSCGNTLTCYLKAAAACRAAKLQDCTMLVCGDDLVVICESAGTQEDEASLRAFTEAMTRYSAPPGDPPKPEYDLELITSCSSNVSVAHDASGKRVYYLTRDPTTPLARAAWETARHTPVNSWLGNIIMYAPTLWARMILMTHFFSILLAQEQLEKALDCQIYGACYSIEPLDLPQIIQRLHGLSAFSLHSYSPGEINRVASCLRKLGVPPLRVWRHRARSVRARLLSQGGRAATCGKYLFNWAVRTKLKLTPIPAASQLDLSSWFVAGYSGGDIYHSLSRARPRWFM

SMILES | IC50 [1] | IC50
COc1ccc2c(c1)C=C(c1c(C(=O)O)cnn1C)Cn1c-2c(C2CCCCC2)c2ccc(C(=O)NS(=O)(=O)C(C)C)cc21 | 1 to 500 nM | 
COc1ccc2c(c1)C=C(c1c(C(=O)N3[C@H]4CC[C@@H]3CC4)cnn1C)Cn1c-2c(C2CCCCC2)c2ccc(C(=O)NS(=O)(=O)C(C)C)cc21 |  | 1 to 500 nM
CCOC(=O)c1cnn(C)c1C1=Cc2cc(OC)ccc2-c2c(C3CCCCC3)c3ccc(C(=O)NS(=O)(=O)CC(C)C)cc3n2C1 | 1 to 500 nM | 
COc1ccc2c(c1)C=C(c1c(C(=O)N(Cc3ccccc3OC)C(C)C)cnn1C)Cn1c-2c(C2CCCCC2)c2ccc(C(=O)NS(=O)(=O)C(C)C)cc21 | 1 to 500 nM | 
CCc1nnc(CN(C(=O)c2cnn(C)c2C2=Cc3cc(OC)ccc3-c3c(C4CCCCC4)c4ccc(C(=O)NS(=O)(=O)C(C)C)cc4n3C2)C(C)C)o1 | 1 to 500 nM | 
CCOC(=O)c1cnn(C)c1C1=Cc2cc(OC)ccc2-c2c(C3CCCCC3)c3ccc(C(=O)NS(=O)(=O)C4CCC4)cc3n2C1 | 1 to 500 nM | 
COc1ccc2c(c1)C=C(c1c(C(=O)N3C[C@@H](C)O[C@@H](C)C3)cnn1C)Cn1c-2c(C2CCCCC2)c2ccc(C(=O)NS(=O)(=O)C3CCCC3)cc21 | 1 to 500 nM | 
COc1ccc2c(c1)C=C(c1c(C(=O)N3CCCC(N(C)C)C3)cnn1C)Cn1c-2c(C2CCCCC2)c2ccc(C(=O)NS(=O)(=O)C3CCCC3)cc21 (stereo not drawn) | 1 to 500 nM | 
CCN1C[C@@H]2C[C@H]1CN2C(=O)c1cnn(C)c1C1=Cc2cc(OC)ccc2-c2c(C3CCCCC3)c3ccc(C(=O)NS(=O)(=O)C4CCCC4)cc3n2C1 | 1 to 500 nM | 
COc1ccc2c(c1)C=C(c1c(C(=O)N3CCN4CCCC4C3)cnn1C)Cn1c-2c(C2CCCCC2)c2ccc(C(=O)NS(=O)(=O)C3CCCC3)cc21 (stereo not drawn) | 1 to 500 nM | 
CCN(C(=O)c1cnn(C)c1C1=Cc2cc(OC)ccc2-c2c(C3CCCCC3)c3ccc(C(=O)NS(=O)(=O)C4CCCC4)cc3n2C1)C(C)C | 1 to 500 nM | 
CCC(C)S(=O)(=O)NC(=O)c1ccc2c(C3CCCCC3)c3n(c2c1)CC(c1c(C(=O)N2C[C@@H]4C[C@H]2CN4CC)cnn1C)=Cc1cc(OC)ccc1-3 (stereo partly drawn) | 1 to 500 nM | 
CCC(C)S(=O)(=O)NC(=O)c1ccc2c(C3CCCCC3)c3n(c2c1)CC(c1c(C(=O)N2CCN4CCCC4C2)cnn1C)=Cc1cc(OC)ccc1-3 (stereo not drawn) | 1 to 500 nM | 
CCOC(=O)c1cnn(C)c1C1=Cc2cc(OC)ccc2-c2c(C3CCCCC3)c3ccc(C(=O)NS(=O)(=O)C(C)CC)cc3n2C1 (stereo not drawn) | 1 to 500 nM | 
COc1ccc2c(c1)C=C(c1c(C(=O)O)cnn1C)Cn1c-2c(C2CCCCC2)c2ccc(C(=O)NS(=O)(=O)C3CCC3)cc21 | 1 to 500 nM | 
COc1ccc2c(c1)C=C(c1c(C(=O)N3C[C@@H](C)N(C)[C@@H](C)C3)cnn1C)Cn1c-2c(C2CCCCC2)c2ccc(C(=O)NS(=O)(=O)C3CCCC3)cc21 | 1 to 500 nM | 
COc1ccc2c(c1)C=C(c1c(C(=O)N3CCN4CCCC4C3)cnn1C)Cn1c-2c(C2CCCCC2)c2ccc(C(=O)NS(=O)(=O)CC(C)C)cc21 (stereo not drawn) | 1 to 500 nM | 
COc1ccc2c(c1)C=C(c1c(C(=O)N3C[C@@H](C)N(C)[C@@H](C)C3)cnn1C)Cn1c-2c(C2CCCCC2)c2ccc(C(=O)NS(=O)(=O)CC(C)C)cc21 | 1 to 500 nM | 
CCN1CC2CC1CN2C(=O)c1cnn(C)c1C1=Cc2cc(OC)ccc2-c2c(C3CCCCC3)c3ccc(C(=O)NS(=O)(=O)CC(C)C)cc3n2C1 (stereo not drawn) | 1 to 500 nM | 
COc1ccc2c(c1)C=C(c1c(C(=O)N3CCCC(N(C)C)C3)cnn1C)Cn1c-2c(C2CCCCC2)c2ccc(C(=O)NS(=O)(=O)CC(C)C)cc21 (stereo not drawn) | 1 to 500 nM | 
COc1ccc2c(c1)C=C(c1c(C(=O)N3C[C@@H](C)N(C)[C@@H](C)C3)cnn1C)Cn1c-2c(C2CCCCC2)c2ccc(C(=O)NS(=O)(=O)C3CCC3)cc21 | 1 to 500 nM | 
COc1ccc2c(c1)C=C(c1c(C(=O)N3C[C@@H](C)O[C@@H](C)C3)cnn1C)Cn1c-2c(C2CCCCC2)c2ccc(C(=O)NS(=O)(=O)C3CCC3)cc21 | 1 to 500 nM | 
COC(=O)c1c(C)nn(C)c1C1=Cc2cc(OC)ccc2-c2c(C3CCCCC3)c3ccc(C(=O)NS(=O)(=O)N(C)C)cc3n2C1 | 1 to 500 nM | 
COC(=O)c1c(C)nn(C)c1C1=Cc2cc(OC)ccc2-c2c(C3CCCCC3)c3ccc(C(=O)NS(=O)(=O)CC(C)C)cc3n2C1 | 1 to 500 nM | 
COc1ccc2c(c1)C=C(c1c(C(=O)N3CC4CCC(C3)O4)c(C)nn1C(C)C)Cn1c-2c(C2CCCCC2)c2ccc(C(=O)NS(=O)(=O)C(C)C)cc21 | 1 to 500 nM | 
CCn1nc(C)c(C(=O)N2C[C@@H](C)N(C)[C@@H](C)C2)c1C1=Cc2cc(OC)ccc2-c2c(C3CCCCC3)c3ccc(C(=O)NS(=O)(=O)C(C)C)cc3n2C1 | 1 to 500 nM | 
CCn1ncc(C(=O)N2CC3CCC(C2)O3)c1C1=Cc2cc(OC)ccc2-c2c(C3CCCCC3)c3ccc(C(=O)NS(=O)(=O)C(C)C)cc3n2C1 | 1 to 500 nM | 
CCn1nc(C)c(C(=O)N2CCO[C@H](COC)C2)c1C1=Cc2cc(OC)ccc2-c2c(C3CCCCC3)c3ccc(C(=O)NS(=O)(=O)C(C)C)cc3n2C1 | 1 to 500 nM | 
COc1ccc2c(c1)C=C(c1nn(C(C)C)c(C)c1C(=O)N1C[C@@H](C)O[C@@H](C)C1)Cn1c-2c(C2CCCCC2)c2ccc(C(=O)NS(=O)(=O)C(C)C)cc21 [drawing 617] | 1 to 500 nM | 
COc1ccc2c(c1)C=C(c1nn(C(C)C)c(C)c1C(=O)N1C[C@@H](C)O[C@@H](C)C1)Cn1c-2c(C2CCCCC2)c2ccc(C(=O)NS(=O)(=O)C(C)C)cc21 [drawing 622] | 1 to 500 nM | 
